Test results reported in patent US9133180B2, “Aurora and FLT3 kinases modulators” (SAREUM LIMITED, priority 2012, dated 2015).

Columns and labels:
[1] = target: Aurora A kinase (Homo sapiens (Human), UniProt O14965); test: Aurora A kinase 33P-ATP filter assay (Reaction Biology Corp.); format: biochemical
Experimental: The ability of the compounds of the invention to inhibit FLT3 kinase and Aurora A and Aurora B kinases was determined using the assays described below.
Kinase assays were performed at Reaction Biology Corp., Malvern, Pa., USA, using the following general procedure:
1) Prepare indicated substrate in freshly prepared Base Reaction Buffer (20 mM Hepes pH 7.5, 10 mM MgCl2, 1 mM EGTA, 0.02% Brij35, 0.02 mg/ml BSA, 0.1 mM Na3VO4, 2 mM DTT, 1% DMSO).
2) Deliver cofactors (1.5 mM CaCl2, 16 ug/mL Calmodulin, 2 mM MnCl2) to the substrate solution above.
3) Deliver indicated kinase into the substrate solution and gently mix
4) Deliver varying concentrations of test compound in DMSO into the kinase reaction mixture.
5) Deliver ^33P-ATP (specific activity 0.01 µCi/µL final) into the reaction mixture to initiate the reaction.
6) Incubate kinase reaction for 120 min at room temperature.
7) Reactions are spotted onto P81 ion exchange filter paper (Whatman #3698-915)
8) Unbound phosphate is removed by washing filters extensively in 0.75% phosphoric acid.
9) ^33P signal was determined using Typhoon phosphorimagers (GE Healthcare).
Substrates: Kemptide=[H-LRRASLG] Abltide=[[…]]

[2] = test system: KG-1; test: CellTiter-Blue assay, haematological cell line; format: cell-based; conditions: Homo sapiens, 96 h; KG-1 (AML), four days treatment
Experimental: (§1) The compounds of Examples 2 and 7 were tested against a range of human haematological cell lines using the CellTiter-Blue® assay (#G8081, Promega) according to the manufacturer's instructions. Cells were harvested from exponential phase cultures, counted and plated in 96 well flat-bottom microtiter plates at a cell density of 20,000-90,000 cells/well. After a 24 h recovery period to allow the cells to resume exponential growth, 10 μl of culture medium (four control wells/plate) or of culture medium with test compound were added. The compounds were applied in duplicates at ten concentrations and treatment continued for four days. After treatment of cells, 10 μl/well CellTiter-Blue® reagent was added. Following an incubation period of up to four hours, fluorescence (FU) was measured by using the EnVision Xcite multilabel reader (excitation λ=531 nm, emission λ=615 nm). The compounds were tested in two to four independent experiments for each cell line.

[3] = test system: HL-60; test: CellTiter-Blue assay, haematological cell line; format: cell-based; conditions: Homo sapiens, 96 h; HL-60 (AML), four days treatment
Experimental: as §1

[4] = test system: JURKAT; test: CellTiter-Blue assay, haematological cell line; format: cell-based; conditions: Homo sapiens, 96 h; JURKAT (ALL), four days treatment
Experimental: as §1

[5] = test system: PL-21; test: CellTiter-Blue assay, haematological cell line; format: cell-based; conditions: Homo sapiens, 96 h; PL-21 (AML), four days treatment
Experimental: as §1

[6] = test system: MV4-11; test: CellTiter-Blue assay, haematological cell line; format: cell-based; conditions: Homo sapiens, 96 h; MV4-11 (AML), four days treatment
Experimental: as §1

[7] = test system: KCL-22; test: CellTiter-Blue assay, haematological cell line; format: cell-based; conditions: Homo sapiens, 96 h; KCL-22 (CML), four days treatment
Experimental: as §1

[8] = test system: MEG-01; test: CellTiter-Blue assay, haematological cell line; format: cell-based; conditions: Homo sapiens, 96 h; MEG-01 (CML), four days treatment
Experimental: as §1

[9] = test system: IM-9; test: CellTiter-Blue assay, haematological cell line; format: cell-based; conditions: Homo sapiens, 96 h; IM-9 (MM), four days treatment
Experimental: as §1

[10] = test system: EM-2; test: CellTiter-Blue assay, haematological cell line; format: cell-based; conditions: Homo sapiens, 96 h; EM-2 (CML), four days treatment
Experimental: as §1

[11] = test system: KM-H2; test: CellTiter-Blue assay, haematological cell line; format: cell-based; conditions: Homo sapiens, 96 h; KM-H2 (HL), four days treatment
Experimental: as §1

[12] = test system: HCT-116; test: Anti-proliferative activity, Alamar Blue assay; format: cell-based; conditions: Homo sapiens, 96 h exposure, read-out: HCT116 96 Hrs IC50
Experimental: The anti-proliferative activities of compounds of the invention are determined by measuring the ability of the compounds to inhibit the growth of the colorectal cancer derived cell-line HCT-116. Inhibition of cell growth is measured using the Alamar Blue assay (Nociari et al., Journal of Immunological Methods (1998) 213, 157-167). The method is based on the ability of viable cells to reduce resazurin to its fluorescent product resorufin. For each proliferation assay cells are plated onto 96 well plates and allowed to recover for 16 hours prior to the addition of inhibitor compounds for a further 96 hours. At the end of the incubation period 10% (v/v) Alamar Blue is added and incubated for a further 6 hours prior to determination of fluorescent product at Excitation 535 nm and Emission 590 nm. All cell lines are obtained from ECACC (European Collection of cell Cultures).
The activities of the compounds of the invention against the human colorectal cancer cell line HCT-116 are shown the in the table below. The column headed HCT-116 96 Hrs refers to the concentration of compound required to reduce the proliferation of HCT-116 cells by 50% following a 96 h period of exposure. The column headed [Polyploidy] refers to the lowest concentration of compound required to produce a distinct polyploid phenotype, believed to be due to Aurora B inhibition.

[13] = Body weight / tolerability in MV4-11-bearing nude mice; format: in vivo, Balb/c nude mouse
Experimental: A total of 52 female nude mice were used. The mice were allowed 3 days of acclimatization period before starting the experiment. Mice were implanted subcutaneously (s.c.) with 200 μl of 1×10^7MV4-11 tumour cells in 50% Matrigel in the right flank at the beginning of the study. When tumours reached an average volume of 100-150 mm^3, 32 mice out of the 52 were selected based on tumour volume, and randomly assigned to 4 groups prior to dosing. Each treatment group consisted of 8 tumour-bearing animals (n=8/group).
A comparison group of mice were treated with cytarabine once daily for 5 days on, 2 days off, for 4 cycles.
Mice were weighed at each dosing and the tumour sizes recorded twice each week. Mice were observed closely for any overt signs of adverse, treatment-related side effects and these were recorded if and when they were observed.
Mice were euthanized by CO2 exposure after 4-cycle dose. The tumour volume, weight of dissected tumours, and the mouse body weight were measured and recorded. The tumour inhibitory rate (IR) was calculated by the formula IR=(WV−WT)/WV×100%.

[14] = Caco-2 permeability assay; format: in vitro ADME; conditions: human; for Papp A→B: A2B, read-out: Caco2 A2B Papp; for Papp B→A: B2A, read-out: Caco2 B2A Papp
Experimental: The ability of a compound to be taken up and retained by a cell can be measured by carrying out permeability studies using Caco-2 cells.
Compounds of the present invention were therefore tested in a standard Caco-2 assay and the rate of flow of the compounds into and out of the cells was determined.
In the table, the column headed “Caco-2 A2B” indicates the rate at which compound flows into the cells and the column Caco-2 B2A indicates the rate at which compound flows out of the cells. The “Efflux Ratio” is the ratio of Caco-2 B2A:Caco-2 A2B.

Sequence of Aurora A kinase (O14965 whole entry): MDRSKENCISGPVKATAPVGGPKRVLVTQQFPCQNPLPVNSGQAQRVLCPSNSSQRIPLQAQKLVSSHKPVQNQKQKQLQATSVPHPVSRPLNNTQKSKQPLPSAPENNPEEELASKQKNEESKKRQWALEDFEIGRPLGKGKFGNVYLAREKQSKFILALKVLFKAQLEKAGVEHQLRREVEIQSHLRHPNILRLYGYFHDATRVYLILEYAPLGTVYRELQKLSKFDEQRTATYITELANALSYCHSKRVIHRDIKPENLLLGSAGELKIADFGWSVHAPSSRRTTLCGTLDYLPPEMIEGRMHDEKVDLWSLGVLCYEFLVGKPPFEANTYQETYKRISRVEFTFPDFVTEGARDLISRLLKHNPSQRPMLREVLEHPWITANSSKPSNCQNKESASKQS

Compound	IC50 [1]	IC50 [2]	IC50 [3]	IC50 [4]	IC50 [5]	IC50 [6]	IC50 [7]	IC50 [8]	IC50 [9]	IC50 [10]	IC50 [11]	IC50 [12]	toxicity in xenograft study ([13]; 30 mg/kg IV BID)	Papp A→B [14]	Papp B→A [14]	toxicity in xenograft study ([13]; 20 mg/kg IV BID)	efflux ratio ([14]; B2A:A2B, read-out: Caco2 Efflux ratio)
Cc1cc(F)c2[nH]ccc2c1-c1nc(C(N)=O)c(-c2ccc(N3CCNC(C)(C)C3)cc2)o1 [Example 7, 2-(5-Methyl-7-Fluoro-1H-Indol-4-yl)-5-[4-(3,3-dimethyl-piperazin-1-yl)-phenyl]-oxazole-4-carboxylic acid amide]	42.5 nM	137 nM	52 nM	93 nM	91 nM	9 nM	366 nM	468 nM	70 nM	493 nM	137 nM	120 nM	without any obvious toxicity	0.683 ×10⁻⁶ cm/s	2.26 ×10⁻⁶ cm/s		
Cc1ccc2[nH]ccc2c1-c1nc(C(N)=O)c(-c2ccc(N3CCNC(C)(C)C3)cc2)o1 [Example 2, 2-(5-Methyl-1H-Indol-4-yl)-5-[4-(3,3-dimethyl-piperazin-1-yl)-phenyl]-oxazole-4-carboxylic acid amide]	13.6 nM	76 nM	64 nM	91 nM	99 nM	9 nM	417 nM	633 nM	70 nM	604 nM	189 nM	74 nM		1.98 ×10⁻⁶ cm/s	9.91 ×10⁻⁶ cm/s	without any obvious toxicity	4.99
